We go through four compounds from US20250270180A1, “MEK INHIBITORS AND THERAPEUTIC USES THEREOF” (Immuneering Corporation, priority 2020, published 2025).

Each structure is given as a SMILES string. pIC50: −log10 of the molar value.

One data set has as its system A549 (KRAS-G12S) pERK. Description: Cell-based pERK dose response study, A549. The note with it: Homo sapiens; A549; 12-point dose; 2 hours. How it is done:
Materials and Methods: A549 or A375 cells were seeded in 6-well plates at an appropriate seeding density on day 0. On day 2 or 3, after checking the health and confluency of cells, the media was aspirated and replaced with 1 mL media containing a predetermined concentration of compound and incubated for 2 hours. After 2 hours, the media was aspirated, and the cells washed 2 times with cold PBS. Cells were lysed on ice, with 50 uL 1×CST lysis buffer+1 mM PMSF for 5 minutes. After 5 minutes, cells were removed using a scraper and transferred to cold 1.5 mL tubes, and centrifuged for 10 min, 4° C., 14,000×g. Supernatant was gently removed and snap frozen in liquid nitrogen. Protein concentration of the lysate was determined using Bradford Reagent (analyzed using SpectraMax M2E) and diluted to 1 mg/mL or pERK or 1.5 mg/mL for pMEK analysis. […] All dilutions were in Milk-free antibody diluent.

The subject of a further data set is A549 pMEK:tMEK (CRAF). Description: CRAF-bypass pMEK:tMEK, A549. Format: cell-based. Here is the method: Materials and Methods: A549 or A375 cells were seeded in 6-well plates at an appropriate seeding density on day 0. On day 2 or 3, after checking the health and confluency of cells, the media was aspirated and replaced with 1 mL media containing a predetermined concentration of compound and incubated for 2 hours. After 2 hours, the media was aspirated, and the cells washed 2 times with cold PBS. Cells were lysed on ice, with 50 uL 1×CST lysis buffer+1 mM PMSF for 5 minutes. After 5 minutes, cells were removed using a scraper and transferred to cold 1.5 mL tubes, and centrifuged for 10 min, 4° C., 14,000×g. Supernatant was gently removed and snap frozen in liquid nitrogen. Protein concentration of the lysate was determined using Bradford Reagent (analyzed using SpectraMax M2E) and diluted to 1 mg/mL or pERK or 1.5 mg/mL for pMEK analysis. Cell lysates were then analyzed for phosphor-ERK/total-ERK levels on a Jess system (ProteinSimple; Cat #JS3346) using the following antibodies: tERK1/2 (CST 4696; 1:50) and pERK1/2 (CST 4377; 1:50). […]
A549 or […] cells were treated in duplicate for two hours with compounds at varying concentrations. […] After storage, the lysate was quantified with the Bradford assay. Before the lysates were prepared to run on the Jess, the lysates were diluted to 1 mg/mL for pERK analysis and 1.5 mg/mL pMEK analysis using quantitative Western blotting. […]

Data set [1] is described as follows: Mouse liver microsome stability (t1/2, Clint). The data set is classed as in vitro ADME. The conditions noted are these: liver microsomes, pH 7.4, 0.5 mg/ml microsomal protein. Here is the method:
(Eppendorf 5804R). […] The disappearance of the parent compound was determined.
(Liver microsomes are vesicles of endoplasmic reticulum, rich in cytochrome P450 enzymes.)

The nature of data set [2]: Human liver microsome stability (t1/2, Clint). Format: in vitro ADME. The note with it: microsomes, pH 7.4, 0.5 mg/ml microsomal protein.
Data set [3] in a line: Kinetic solubility (PBS pH 7.4; 4 hr). Format: physicochemical. The note with it: 10 mM PBS buffer, aqueous buffer, kinetic from dmso stock. Here is the method: The plates were shaken for 4 h at room temperature in an Eppendorf Thermomixer. After incubation, the plates were centrifuged for 20 minutes at 4680 rpm. From the supernatant, 150 uL was transferred to a new 96 well plate and 50 uL DMSO was added to ensure continued dissolution. Samples were measured on LC-UV at injection volumes of 1 and 8 uL. Peak areas were determined and compared to peak areas obtained using calibration curves of the test compounds in DMSO.

Data set [4] is described as follows: eLogD (lipophilicity; pH 7.4). The data set is classed as physicochemical. Here is the method: Test compounds were dissolved in DMSO at a concentration of 10 mM and further diluted with methanol: water 1:1. Samples were analyzed using gradient HPLC with three different isocratic mobile phases of 0.25% octanol in methanol (60, 65 and 70%) and 20 mM MOPS buffer (pH 7.4) with decylamine. If needed, (for low ElogDoct compounds) the isocratic mobile phases were adjusted to e.g. 40, 45 and 50% methanol. Peaks were detected using a diode array at absorbance 220-320 nm.
Capacity factors data (k′ _=(tr−_t0)/t0) obtained at various amounts of methanol were extrapolated to 0% methanol and k′w values are determined using a linear procedure. ElogDoct (7.4) is calculated using a series of reference standards with known Log D values. Each experiment was performed in triplicate.

A short description of the next data set: PAMPA (pH 7.4). The conditions noted are these: PAMPA. How it is done: Each stock solution was diluted to 50 uM in pH 7.4 Prisma HT buffer (pION) and 200 ul was added to each well of the donor plate in triplicate. The polyvinylidene fluoride (PVDF, 0.45 μm) filter membrane on the acceptor plate was coated with 5 ul gastrointestinal tract lipid formulation (GIT-0, pION) and to each well of the acceptor plate, 200 μl of acceptor sink buffer (pION) was added. The acceptor filter plate was then carefully placed on top of the donor plate to form a sandwich. The sandwich was incubated at 25° C. for 4 h without stirring. UV-vis spectra of the solutions in the blank, reference, acceptor and donor plates were measured using a microplate reader (Tecan Infinite 200PRO M Nano Plus). Permeability values were calculated using the PAMPA explorer software v. 3.8.0.2 (pION).
(PAMPA measures passive passage across an artificial lipid membrane.)

A short description of data set [5]: Single dose PK profile (plasma and tumor) in Colon26 tumor bearing mice. Format: in vivo. The note with it: female, mouse. Here is the method:
Female mice (either athymic BALC/c nude, or BALB/c mice) were inoculated with a single subcutaneous injection of 0.1 ml of mouse Colon-26 cell suspension (1×10^5 cells per animal) in the right flank region. Colon26 (C26) tumor bearing mice received a single dose (3-4 mice/treatment) of vehicle (10% DMSO/90% [20% SBE-B-CD in saline], pH 5) containing compounds at indicated dose by gavage (p.o.) or intravenous administration (i.v.) and at various time points (0.16, 0.5, 1, 2, 4, 8, 12, 16, 24-hour) post dose humanely euthanized. Blood was obtained through cardiac puncture into K+EDTA tubes, mixed by inversion and centrifuged to obtain the plasma. Tissues were excised, cleaned of surrounding tissues. All samples immediately snap frozen in liquid N2 prior to LC-MS/MS analysis (using Agilent Poroshell-120 EC-C18 (4.0 μm) 2.1×50 mm, and a Water+API-4000 Electrospray MS unit). The results of this study are illustrated in FIGS. 16, and 17. Tables 11 describes a single does PK profile (plasma) and Table 12 describes a single dose PK profile (tumor).

For the next data set, the target named is CYP450 2D6 (Homo sapiens, UniProt P10635).
Chain of CYP450 2D6 (P10635 whole entry): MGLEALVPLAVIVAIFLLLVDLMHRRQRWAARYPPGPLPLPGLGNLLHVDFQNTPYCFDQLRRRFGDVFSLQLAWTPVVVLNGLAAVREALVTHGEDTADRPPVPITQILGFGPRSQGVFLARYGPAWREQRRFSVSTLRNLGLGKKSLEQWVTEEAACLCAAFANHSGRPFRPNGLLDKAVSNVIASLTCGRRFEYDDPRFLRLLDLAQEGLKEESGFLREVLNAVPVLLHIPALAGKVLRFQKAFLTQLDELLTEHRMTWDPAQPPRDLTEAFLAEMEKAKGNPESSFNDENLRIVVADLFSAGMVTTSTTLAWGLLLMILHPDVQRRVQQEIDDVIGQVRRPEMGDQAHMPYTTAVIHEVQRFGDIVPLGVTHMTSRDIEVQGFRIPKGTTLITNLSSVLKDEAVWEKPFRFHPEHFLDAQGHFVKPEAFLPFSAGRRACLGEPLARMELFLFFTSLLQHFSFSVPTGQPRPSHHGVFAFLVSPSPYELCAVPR
Another data set can be described thus: in vitro. The conditions noted are these: human, Caco-2.
For data set [6] the following is noted: Inv New Drugs (2018) 36, 1037-1043; cited from earlier work.
[7] abbreviates: athymic BALB/c nude or BALB/c, iv, 25 mg/kg, plasma, 25 mpk i.v.
Setting [8] is: athymic BALB/c nude or BALB/c, po, 25 mg/kg, plasma, 25 mpk p.o.
Setting [9] is: athymic BALB/c nude or BALB/c, po, 100 mg/kg, plasma, 100 mpk p.o.
[10] abbreviates: iv, 25 mg/kg, plasma, 25 mpk i.v.
Where [11] appears, read: iv, 25 mg/kg, tumor, 25 mpk i.v.
The mark [12] stands for this setting: po, 25 mg/kg, plasma, 25 mpk p.o.
Where [13] appears, read: po, 25 mg/kg, tumor, 25 mpk p.o.
The mark [14] stands for this setting: po, 100 mg/kg, plasma, 100 mpk p.o.
Setting [15] is: po, 100 mg/kg, tumor, 100 mpk p.o.

The term pIC50 denotes the negative decadic logarithm of the IC50, by convention in mol/L. Read a low pIC50 as a high IC50. By half-life is commonly meant the time needed for the level to fall by half in the phase considered. Low readings indicate fast loss, high ones slow loss. Broadly, the microsomal CLint is a measure of how fast metabolising enzymes remove a compound, apart from limits set by blood flow. Low readings indicate slow turnover, high ones rapid turnover. Usually kinetic solubility stands for the concentration staying in solution when a stock, usually in DMSO, is diluted into the medium. The term chromatographic logD denotes lipophilicity estimated from chromatographic retention. The low end stands for a more hydrophilic compound, the high end for a more lipophilic compound. By Papp is commonly meant a coefficient for how fast a substance crosses the barrier. Higher therefore signals fast passage. By Tmax is commonly meant the time from dosing to the highest level. By AUC(0-inf) is commonly meant total exposure, with the tail of the curve extrapolated. Read a high AUC(0-inf) as high exposure. Broadly, the AUC(0-t) is the area under the concentration-time curve up to a stated or last time point. A lower AUC(0-t) goes with low exposure. Broadly, the Cmax is the highest concentration seen after dosing. In the case of `CNS(=O)(=O)Nc1cccc(Cc2c(CN3CCC3)c3ccc(OC(=O)N(C)C)cc3oc2=O)c1F` [Compound 197], the pIC50 with A549 (KRAS-G12S) pERK is 8.37. Further, the “CRAF A549 pMEK:tMEK [100 nM; 2 hr]” value in the data set on A549 pMEK:tMEK (CRAF) worked out at 0.49. Also, the half-life at 1 uM in [1] amounted to 53 min; in data set [2], 38 min. The compound further yielded a microsomal CLint at 1 uM in [1] of 26 µL/min/mg. In [3], this compound gave a solubility (kinetic) at 4 h of over 80 µM. In data set [4], this compound returned a chromatographic logD of 2.9. The Papp at 4 h, 50 uM in the data set “PAMPA (pH 7.4)” was 51 ×10⁻⁶ cm/s. The Tmax turned out to be 9.6 min in data set [5] (setting [7]); 30 min in data set [5] (setting [11]); 30 min in data set [5] (setting [12]); 60 min in data set [5] (setting [13]); 9.6 min in data set [5] (setting [14]); 60 min in [5] (setting [15]). Besides, the half-life in data set [5] (setting [7]) is 143 min; in [5] (setting [8]) it was 73.8 min; in data set [5] (setting [9]), 82.8 min. In addition, the bioavailability in data set [5] (setting [8]) worked out at 47%; in data set [5] (setting [9]), 100%; in data set [5] (setting [13]), 42%; in data set [5] (setting [15]) it was 111%. Besides, the area under the curve AUC(0-inf) in data set [5] (setting [10]) was found to be 7740 ng·h/mL; in data set [5] (setting [11]), 8360 ng·h/mL; in [5] (setting [12]), 3650 ng·h/mL; in [5] (setting [14]), 31100 ng·h/mL; in [5] (setting [15]), 37100 ng·h/mL. Further, the AUC(0-t) in [5] (setting [10]) came out at 7730 ng·h/mL; in data set [5] (setting [11]), 8320 ng·h/mL; in data set [5] (setting [12]), 3640 ng·h/mL; in [5] (setting [13]) it was 3460 ng·h/mL; in data set [5] (setting [14]) it was 31100 ng·h/mL; in data set [5] (setting [15]) it was 36900 ng·h/mL. Moreover, the Cmax in data set [5] (setting [10]) came to 10900 ng/mL; in data set [5] (setting [11]) it was 6750 ng/mL; in data set [5] (setting [12]), 2320 ng/mL; in [5] (setting [13]), 1920 ng/mL; in [5] (setting [14]), 14200 ng/mL; in data set [5] (setting [15]), 12600 ng/mL.

As for `C=C[C@H]1C[N@@]2CC[C@H]1C[C@@H]2[C@@H](O)c1ccnc2ccc(OC)cc12` [Quinidine], the “2D6*” value on CYP450 2D6 was 99.7.

Broadly, the Papp A→B is the apparent permeability from the apical to the basolateral side of a cell layer. The low end stands for poor permeation, the high end for ready permeation. In “in vitro”, `CC(=O)CC(c1ccccc1)c1c(O)c2ccccc2oc1=O` (centres unmarked) [Warfarin] showed a Papp A→B at 2 h, 10 μM of over 1 ×10⁻⁶ cm/s.

Take `Cn1cnc2c(F)c(Nc3ccc(Br)cc3F)c(C(=O)NOCCO)cc21` [binimetinib]: the “muscle gain in patients with BTC” value in [6] is recorded as “promote muscle gain”.
